Measured values published in US12376590B2, “Compositions comprising pyridine carboxylate herbicides and azole carboxylate safeners” (Corteva Agriscience LLC, priority 2018, dated 2025).

Columns and labels:
Assay in all cases: Greenhouse postemergence herbicidal safening trial, visual injury after 20-22 d
[1] = system: Canada thistle (CIRAR); format: in vivo, Cirsium arvense
Text: (§1) Greenhouse Trial Methodology—Evaluation of Postemergence Herbicidal Safening in Crops
(§2) Seeds of the desired test plant species were planted in a 90:10% v/v (volume/volume) mixture of PRO-MIX® BX (Premier Tech Horticulture, Quakertown, PA, USA) and PROFILE® GREENS GRADE™ (Profile Products LLC, Buffalo Grove, IL, USA) planting mixture, which typically has a pH of 5.2 to 6.2 and an organic matter content of at least 50 percent, in plastic pots with a surface area of 103.2 square centimeters (cm^2). When required to ensure good germination and healthy plants, a fungicide treatment and/or other chemical or physical treatment was applied. The plants were grown for 7-36 days (d) in a greenhouse with an approximate 14-hour (h) photo-period which was maintained at about 23° C. during the day and 22° C. during the night. Nutrients and water were added on a regular basis and supplemental lighting was provided with overhead metal halide 1000-Watt lamps as necessary. The plants were employed for testing when they reached the second or third true leaf stage.
(§3) Emulsifiable concentrates of each of each pyridine carboxylate herbicide (Compound A or Compound B) were prepared at 100 grams acid equivalent per liter (g ae/L). An aliquot of each emulsifiable concentrate was placed in a 25 mL glass vial and diluted with an aqueous mixture of 1.25% (v/v) ACTIROB® B esterified rapeseed oil (Bayer Crop Science, Research Triangle Park, NC, USA) or MSO® Concentrate with LECI-TECH® methylated soybean oil (Loveland Products, Loveland, CO, USA) to obtain concentrated stock solutions at the highest application rate for each herbicide, based upon a 12 milliliter (mL) application volume at a rate of 187 liters per hectare (L/ha). The concentrated stock solutions were further diluted with an aqueous mixture of 1.25% v/v ACTIROB® B or MSO® Concentrate with LECI-TECH® to obtain stock solutions at reduced application rates for each herbicide. Spray solutions of the herbicide combinations (Compound A or Compound B plus safener) were prepared by adding weighed amounts or aliquots of the azole carboxylate safener to the stock solutions of Compound A or Compound B to form 12-mL spray solutions in two-way combinations.
(§4) The spray solutions were applied to the plant material with an overhead Mandel track sprayer equipped with 8002E nozzles calibrated to deliver 187 L/ha over an application area of 0.503 square meters (m^2) at a spray height of 18 inches (43 centimeters (cm)) above the average plant canopy. Control plants were sprayed in the same manner with the solvent blank. All herbicide (component a) application rates are given as “g ae/ha” and all safener (component b) application rates are given as “g ai/ha.”
(§5) The treated plants and control plants were placed in a greenhouse as described above and watered by sub-irrigation to prevent wash-off of the test compounds. After 20-22 d, the condition of the test plants as compared with that of the control plants was determined visually and scored on a scale of 0 to 100 percent where 0 corresponds to no injury and 100 corresponds to complete kill.

[2] = system: giant foxtail (SETFA); format: in vivo, Setaria faberi
Text: as §1, §2, §3, §4, §5

[3] = system: Russian thistle (SASKR); format: in vivo, Salsola kali; conditions: applied alone
Text: as §1, §2, §3, §4, §5

[4] = system: wild buckwheat (POLCO); format: in vivo, Polygonum convolvulus
Text: as §1, §2, §3, §4, §5

[5] = system: blackgrass (ALOMY); format: in vivo, Alopecurus myosuroides
Text: as §1, §2, §3, §4, §5

[6] = system: large crabgrass (DIGSA); format: in vivo, Digitaria sanguinalis
Text: as §1, §2, §3, §4, §5

[7] = system: Canada horseweed (ERICA); format: in vivo, Erigeron canadensis
Text: as §1, §2, §3, §4, §5

[8] = system: common rice (ORYSA); format: in vivo, Oryza sativa
Text: as §1, §2, §3, §4, §5

[9] = system: winter rape (BRSNW); format: in vivo, Brassica napus
Text: as §1, §2, §3, §4, §5

[10] = system: spring barley (HORVS); format: in vivo, Hordeum vulgare; conditions: applied alone
Text: as §1, §2, §3, §4, §5

[11] = system: pigweed (AMARE); format: in vivo, Amaranthus retroflexus
Text: as §1, §2, §3, §4, §5

[12] = system: maize (ZEAMX); format: in vivo, Zea mays
Text: as §1, §2, §3, §4, §5

[13] = system: wild oat (AVEFA); format: in vivo, Avena fatua
Text: as §1, §2, §3, §4, §5

Measured: % visual injury Ob

CCOC(=O)C1=NN(c2ccc(Cl)cc2Cl)C(C)(C(=O)OCC)C1 (stereo not shown) [Mefenpyr-diethyl, mefenpyr-diethyl]
0%: [1]; Mefenpyr-diethyl 20 g/ha | [1]; Mefenpyr-diethyl 40 g/ha | [1]; Mefenpyr-diethyl 80 g/ha | [2]; Mefenpyr-diethyl 20 g/ha | [2]; Mefenpyr-diethyl 40 g/ha | [2]; Mefenpyr-diethyl 80 g/ha | [3]; 10 g/ha | [3]; 20 g/ha | [3]; 40 g/ha | [4]; Mefenpyr-diethyl 20 g/ha | [4]; Mefenpyr-diethyl 40 g/ha | [4]; Mefenpyr-diethyl 80 g/ha | [5]; Mefenpyr-diethyl 20 g/ha | [5]; Mefenpyr-diethyl 40 g/ha | [5]; Mefenpyr-diethyl 80 g/ha | [6]; Mefenpyr-diethyl 20 g/ha | [6]; Mefenpyr-diethyl 40 g/ha | [6]; Mefenpyr-diethyl 80 g/ha | [7]; Mefenpyr-diethyl 20 g/ha | [7]; Mefenpyr-diethyl 40 g/ha | [7]; Mefenpyr-diethyl 80 g/ha | [8]; Mefenpyr-diethyl 20 g/ha | [8]; Mefenpyr-diethyl 40 g/ha | [8]; Mefenpyr-diethyl 80 g/ha | [9]; Mefenpyr-diethyl 20 g/ha | [9]; Mefenpyr-diethyl 40 g/ha | [9]; Mefenpyr-diethyl 80 g/ha | [10]; 10 g/ha | [10]; 20 g/ha | [10]; 40 g/ha | [10]; 80 g/ha | [10]; 120 g/ha | [11]; Mefenpyr-diethyl 20 g/ha | [11]; Mefenpyr-diethyl 40 g/ha | [11]; Mefenpyr-diethyl 80 g/ha | [11]; applied alone, 20 g/ha | [11]; applied alone, 40 g/ha | [11]; applied alone, 80 g/ha | [11]; applied alone, 120 g/ha | [12]; Mefenpyr-diethyl 20 g/ha | [12]; Mefenpyr-diethyl 40 g/ha | [12]; Mefenpyr-diethyl 80 g/ha | [12]; applied alone, 20 g/ha | [12]; applied alone, 40 g/ha | [12]; applied alone, 80 g/ha | [12]; applied alone, 120 g/ha | [13]; Mefenpyr-diethyl 20 g/ha | [13]; Mefenpyr-diethyl 40 g/ha | [13]; Mefenpyr-diethyl 80 g/ha
